{
  "source": "paper PMC9425435",
  "about": "“Antiviral Profiling of C-18- or C-19-Functionalized Semisynthetic Abietane Diterpenoids” (Journal of Natural Products, 2022)",
  "key": {"ZIKV (Zika virus)": {"test_system": "ZIKV (Zika virus)", "assay": "Plaque reduction assay (PFU), ZIKV in Vero E6", "type": "cell-based"}, "[1]": {"test_system": "DENV-2 (Dengue virus type 2)", "assay": "Plaque reduction assay (PFU), DENV-2 in BHK21", "type": "cell-based", "settings": "DENV-2, BHK21, PFU/well 150 ± 25"}, "[2]": {"test_system": "CHIKV (Chikungunya virus)", "assay": "End-point titration technique (EPTT), viral titer reduction factor, CHIKV in Vero E6", "type": "cell-based", "settings": "Vero E6, 10TCID50, EPTT"}, "ZIKV/Col [3]": {"test_system": "ZIKV/Col", "assay": "Quantification of infectious viral particles by plaque assay, ZIKV/Col post-treatment", "type": "cell-based, Zika virus", "settings": "for percentage of infection (infectious viral particles, plaque assay): ZIKV/Col, Vero cells, post-treated, vs untreated control 100%"}, "ZIKV/Col [4]": {"test_system": "ZIKV/Col", "assay": "Quantification of intracellular viral genome by qRT-PCR, ZIKV/Col", "type": "cell-based, Zika virus"}, "ZIKV/Col [5]": {"test_system": "ZIKV/Col", "assay": "Intracellular quantification of viral protein by cell-ELISA, ZIKV/Col", "type": "cell-based, Zika virus", "settings": "all concentrations evaluated (3.1-25.0 μg/mL)"}, "[6]": {"test_system": "Colombian Zika virus strains", "assay": "Anti-Zika EC50 summarised over Colombian strains (abstract)", "type": "cell-based", "settings": "read-out: EC50 against Colombian Zika virus strains"}, "DENV-2": {"test_system": "DENV-2", "settings": "postinfection stages; cited from earlier work"}, "[7]": {"test_system": "herpes virus type 2 (HHV-2)", "settings": "cited from earlier work"}, "[8]": {"assay": "MTT cytotoxicity assay (CC50)", "settings": "chlorocebus sabaeus"}, "Vero-E6 cells": {"test_system": "Vero-E6 cells", "assay": "Cytotoxicity CC100 in Vero-E6 cells (72 h)", "settings": "Vero-E6 cells, 72h"}, "BHK-21 cells": {"test_system": "BHK-21 cells", "assay": "Cytotoxicity CC100 in BHK-21 cells (6 days)"}, "[9]": {"test_system": "endemic chikungunya virus of Colombian origin", "assay": "Post-infection stage evaluation assay (plaque), CHIKV"}, "Zika_459148 virus strain": {"test_system": "Zika_459148 virus strain", "assay": "Post-infection stage evaluation assay (plaque), Zika_459148"}, "ZIKV strain (COL345Si)": {"test_system": "ZIKV strain (COL345Si)", "assay": "Post-infection stage evaluation assay (plaque), ZIKV COL345Si"}},
  "data": [
    {"smiles": "CC(C)c1cc2c(cc1O)[C@@]1(C)CCC[C@@](C)(CN3C(=O)c4ccccc4C3=O)[C@@H]1CC2", "note": "[Compound 6, 18-(phthalimid-2-yl)ferruginol]", "values": [
      {"measurement": "Nontoxic concentration that showed a higher viral reduction factor, in μM", "setting": "ZIKV (Zika virus); ZIKV PFU assay, conversion of 3.1 μg/mL", "value": "ca. 7.2 μM"},
      {"measurement": "% inhibition (PFU)", "setting": "ZIKV (Zika virus); ZIKV, Vero E6, PFU/well 150 ± 25", "value": "52 ± 13", "unit": "%"},
      {"measurement": "% inhibition (PFU)", "setting": "[1]", "value": "91 ± 7", "unit": "%"},
      {"measurement": "Rf (reduction factor of the viral titer)", "setting": "[2]", "value": "10^2"},
      {"measurement": "percentage of infection (infectious viral particles, plaque assay)", "setting": "ZIKV/Col [3]; 3.1 μg/mL", "value": 62.7, "unit": "%"},
      {"measurement": "percentage of infection (infectious viral particles, plaque assay)", "setting": "ZIKV/Col [3]; 6.2 μg/mL", "value": 31.3, "unit": "%"},
      {"measurement": "percentage of infection (infectious viral particles, plaque assay)", "setting": "ZIKV/Col [3]; 12.5 μg/mL", "value": 20.9, "unit": "%"},
      {"measurement": "percentage of infection (infectious viral particles, plaque assay)", "setting": "ZIKV/Col [3]; 25.0 μg/mL", "value": 7.0, "unit": "%"},
      {"measurement": "EC50", "setting": "ZIKV/Col [3]; Zika virus, read-out: EC50 ZIKV/Col", "value": 9.9, "unit": "µM"},
      {"measurement": "number of genome copies/mL, percentage of untreated control", "setting": "ZIKV/Col [4]; 3.1 μg/mL", "value": 125.9, "unit": "%"},
      {"measurement": "replication of viral genome", "setting": "ZIKV/Col [4]; cultures treated with 6.2, 12.5, and 25.0 μg/mL", "value": "significantly inhibited"},
      {"measurement": "viral protein production, percentages of infection", "setting": "ZIKV/Col [5]", "value": "below 50%"},
      {"measurement": "EC50", "setting": "[6]", "value": "5 to 10", "unit": "µM"},
      {"measurement": "EC50", "setting": "DENV-2", "value": 1.4, "unit": "µM"},
      {"measurement": "EC50", "setting": "[7]", "value": 19.2, "unit": "µM"},
      {"measurement": "CC50 at 72 h", "setting": "[8]", "value": 192, "unit": "µM"},
      {"measurement": "CC50 at 144 h", "setting": "[8]", "value": 80.8, "unit": "µM"},
      {"measurement": "CC100 (100% cytotoxic concentration)", "setting": "Vero-E6 cells", "value": ">50", "unit": "µg/mL"},
      {"measurement": "CC100 (100% cytotoxic concentration)", "setting": "BHK-21 cells", "value": ">50", "unit": "µg/mL"},
      {"measurement": "SI (CC50/EC50)", "setting": "[9]; CHIKV", "value": 19.6},
      {"measurement": "EC50", "setting": "[9]; Chikungunya virus, read-out: EC50 chikungunya virus", "value": 9.8, "unit": "µM"},
      {"measurement": "EC50", "setting": "Zika_459148 virus strain; Zika virus, Vero C1008, 72 h, read-out: EC50 anti-Zika_459148 virus", "value": "6.3 ± 2.7", "unit": "µM"},
      {"measurement": "SI (CC50/EC50)", "setting": "Zika_459148 virus strain; Zika_459148, 72 h", "value": 30},
      {"measurement": "SI (CC50/EC50)", "setting": "ZIKV strain (COL345Si); ZIKV COL345Si, 6 days", "value": 15},
      {"measurement": "EC50", "setting": "ZIKV strain (COL345Si); Zika virus, 144 h, read-out: EC50 ZIKV strain COL345Si", "value": "5.3 ± 2.9", "unit": "µM"}
    ]}
  ]
}
